According to patent publication US20210395239A1 (Hoffmann-La Roche Inc., priority 2018, published 2021):

What follows are compounds tested against T1, human TLR8 (Homo sapiens, UniProt Q9NR97) (assay: HEK293-Blue-hTLR-8 cells assay (SEAP reporter, R848 stimulation)). Settings: HEK293-Blue-hTLR8 cells, R848, 20 hrs; read-out: HEK/hTLR8 IC50.
T1 construct: host or cells: HEK293 (HEK-Blue hTLR8)
T1 sequence (Q9NR97 27-1041): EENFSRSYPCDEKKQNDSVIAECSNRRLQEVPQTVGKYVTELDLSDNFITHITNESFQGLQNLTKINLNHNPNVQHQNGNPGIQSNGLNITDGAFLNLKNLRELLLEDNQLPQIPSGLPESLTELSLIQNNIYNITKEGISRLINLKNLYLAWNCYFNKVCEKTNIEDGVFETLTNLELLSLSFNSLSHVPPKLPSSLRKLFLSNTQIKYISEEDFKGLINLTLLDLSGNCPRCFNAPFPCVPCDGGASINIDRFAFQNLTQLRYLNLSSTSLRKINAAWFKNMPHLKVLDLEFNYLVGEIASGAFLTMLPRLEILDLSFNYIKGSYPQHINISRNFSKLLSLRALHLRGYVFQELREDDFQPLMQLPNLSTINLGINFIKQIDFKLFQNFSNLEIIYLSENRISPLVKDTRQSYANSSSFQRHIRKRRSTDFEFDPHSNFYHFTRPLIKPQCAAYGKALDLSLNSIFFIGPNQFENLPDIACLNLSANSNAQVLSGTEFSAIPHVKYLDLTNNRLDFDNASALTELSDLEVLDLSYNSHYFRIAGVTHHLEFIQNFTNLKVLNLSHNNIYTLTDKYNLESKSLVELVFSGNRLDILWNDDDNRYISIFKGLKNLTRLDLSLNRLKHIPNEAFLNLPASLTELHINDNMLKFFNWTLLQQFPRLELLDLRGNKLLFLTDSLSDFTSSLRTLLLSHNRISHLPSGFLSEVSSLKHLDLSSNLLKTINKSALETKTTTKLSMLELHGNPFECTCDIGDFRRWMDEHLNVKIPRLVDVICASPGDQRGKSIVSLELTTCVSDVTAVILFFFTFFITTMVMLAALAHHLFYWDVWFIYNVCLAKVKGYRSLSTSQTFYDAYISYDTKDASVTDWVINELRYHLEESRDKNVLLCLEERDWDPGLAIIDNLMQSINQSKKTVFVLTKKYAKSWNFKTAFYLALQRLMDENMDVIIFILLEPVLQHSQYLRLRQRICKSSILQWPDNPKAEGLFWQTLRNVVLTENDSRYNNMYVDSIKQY
Format: cell-based
From the text: HEK293-Blue-hTLR-8 Cells Assay:
A stable HEK293-Blue-hTLR-8 cell line was purchased from InvivoGen (Cat. #: hkb-ht1r8, San Diego, Calif., USA). These cells were originally designed for studying the stimulation of human TLR8 by monitoring the activation of NF-κB. A SEAP (secreted embryonic alkaline phosphatase) reporter gene was placed under the control of the IFN-β minimal promoter fused to five NF-κB and AP-1-binding sites. The SEAP was induced by activating NF-κB and AP-1 via stimulating HEK-Blue hTLR8 cells with TLR8 ligands. Therefore the reporter expression was declined by TLR8 antagonist under the stimulation of a ligand, such as R848, for incubation of 20 hrs. The cell culture supernatant SEAP reporter activity was determined using QUANTI-Blue™ kit (Cat. #: rep-qb1, Invivogen, San Diego, Ca, USA) at a wavelength of 640 nm, a detection medium that turns purple or blue in the presence of alkaline phosphatase.
HEK293-Blue-hTLR8 cells were incubated at a density of 250,000˜450,000 cells/mL in a volume of 170 μL in a 96-well plate in Dulbecco's Modified Eagle's medium (DMEM) containing 4.5 g/L glucose, 50 U/mL penicillin, […], […], 2 mM L-glutamine, 10% (v/v) heat-inactivated fetal bovine serum with addition of 20 μL test compound in a serial dilution in the presence of final DMSO at 1% and 10 μL of 60 uM R848 in above DMEM, perform incubation under 37° C. in a CO2 incubator for 20 hrs. Then 20 μL of the supernatant from each well was incubated with 180 μL Quanti-blue substrate solution at 37° C. for 2 hrs and the absorbance was read at 620˜655 nm using a spectrophotometer. The signaling pathway that TLR8 activation leads to downstream NF-κB activation has been widely accepted, and therefore similar reporter assay was modified for evaluating TLR8 antagonist.

Point of comparison: Cc1cc(N2CC(C)(N)C2)cnc1N1CCN(C[C@H]2CN(c3ccc(C#N)n4ncc(F)c34)C[C@@H](C)O2)CC1 [Example 148, 4-[(2S,6R)-2-[[4-[5-(3-amino-3-methyl-azetidin-1-yl)-3-methyl-2-pyridyl]piperazin-1-yl]methyl]-6-methyl-morpholin-4-yl]-3-fluoro-pyrazolo[1,5-a]pyridine-7-carbonitrile], IC50 49 nM. Against it:
- [2H]c1ccc2c(N3C[C@H](CN4CC(c5ccc(N6C[C@H](OC)[C@@H](N)C6)cc5)C4)O[C@H](C)C3)ccc(C#N)c2n1 [Example 140, 5-[(2S,6R)-2-[[3-[4-[(3S,4S)-3-amino-4-methoxy-pyrrolidin-1-yl]phenyl]azetidin-1-yl]methyl]-6-methyl-morpholin-4-yl]-2-deuterio-quinoline-8-carbonitrile] — 2-fold lower, 25 nM
- [2H]c1ccc2c(N3C[C@H](CN4CC(c5ccc(N6CC(C)(N)C6)cc5)C4)O[C@H](C)C3)ccc(C#N)c2n1 [Example 141, 5-[(2S,6R)-2-[[3-[4-(3-amino-3-methyl-azetidin-1-yl)phenyl]azetidin-1-yl]methyl]-6-methyl-morpholin-4-yl]-2-deuterio-quinoline-8-carbonitrile] — 5.4-fold lower, 9 nM
- [2H]c1ccc2c(N3C[C@H](CN4CCN(c5ncc(N6C[C@@H](N)[C@H](OC)C6)cc5C)CC4)O[C@H](C)C3)ccc(C#N)c2n1 [Example 142, 5-[(2S,6R)-2-[[4-[5-[(3R,4R)-3-amino-4-methoxy-pyrrolidin-1-yl]-3-methyl-2-pyridyl]piperazin-1-yl]methyl]-6-methyl-morpholin-4-yl]-2-deuterio-quinoline-8-carbonitrile] — 2.9-fold lower, 17 nM
- [2H]c1ccc2c(N3C[C@H](CN4CCN(c5nc(C)cc(N6C[C@@H](N)[C@H](OC)C6)n5)CC4)O[C@H](C)C3)ccc(C#N)c2n1 [Example 144, 5-[(2S,6R)-2-[[4-[4-[(3R,4R)-3-amino-4-methoxy-pyrrolidin-1-yl]-6-methyl-pyrimidin-2-yl]piperazin-1-yl]methyl]-6-methyl-morpholin-4-yl]-2-deuterio-quinoline-8-carbonitrile] — 49-fold lower, 1 nM
- [2H]c1ccc2c(N3C[C@H](CN4CC(c5cnc(N6CC(C)(N)C6)cc5C)C4)O[C@H](C)C3)ccc(C#N)c2n1 [Example 145, 5-[(2S,6R)-2-[[3-[6-(3-amino-3-methyl-azetidin-1-yl)-4-methyl-3-pyridyl]azetidin-1-yl]methyl]-6-methyl-morpholin-4-yl]-2-deuterio-quinoline-8-carbonitrile] — 3.5-fold lower, 14 nM
- [2H]c1ccc2c(N3C[C@H](CN4CC(c5cnc(N6C[C@@H](N)[C@H](OC)C6)cc5C)C4)O[C@H](C)C3)ccc(C#N)c2n1 [Example 146, 5-[(2S,6R)-2-[[3-[6-[(3R,4R)-3-amino-4-methoxy-pyrrolidin-1-yl]-4-methyl-3-pyridyl]azetidin-1-yl]methyl]-6-methyl-morpholin-4-yl]-2-deuterio-quinoline-8-carbonitrile] — 3.5-fold lower, 14 nM
- [2H]c1ccc2c(N3C[C@H](CN4CCN(c5ccc(N6CC(C)(N)C6)c(C)n5)CC4)O[C@H](C)C3)ccc(C#N)c2n1 [Example 147, 5-[(2S,6R)-2-[[4-[5-(3-amino-3-methyl-azetidin-1-yl)-6-methyl-2-pyridyl]piperazin-1-yl]methyl]-6-methyl-morpholin-4-yl]-2-deuterio-quinoline-8-carbonitrile] — 4.5-fold lower, 11 nM
- [2H]c1ccc2c(N3C[C@H](CN4CC(c5ccc(N6C[C@@H](N)[C@H](OC)C6)nc5)C4)O[C@H](C)C3)ccc(C#N)c2n1 [Example 149, 5-[(2S,6R)-2-[[3-[6-[(3R,4R)-3-amino-4-methoxy-pyrrolidin-1-yl]-3-pyridyl]azetidin-1-yl]methyl]-6-methyl-morpholin-4-yl]-2-deuterio-quinoline-8-carbonitrile] — 4.1-fold lower, 12 nM
- [2H]c1ccc2c(N3C[C@H](CN4CCN(c5ccc(N6C[C@H](N)[C@@H](F)C6)nc5)CC4)O[C@H](C)C3)ccc(C#N)c2n1 [Example 150, 5-[(2S,6R)-2-[[4-[6-[(3S,4S)-3-amino-4-fluoro-pyrrolidin-1-yl]-3-pyridyl]piperazin-1-yl]methyl]-6-methyl-morpholin-4-yl]-2-deuterio-quinoline-8-carbonitrile] — 7-fold lower, 7 nM
- [2H]c1ccc2c(N3C[C@H](CN4CCN(c5ccc(N6C[C@@H]7C[C@H]6CN7)nc5)CC4)O[C@H](C)C3)ccc(C#N)c2n1 [Example 151, 2-deuterio-5-[(2S,6R)-2-[[4-[6-[(1S,4S)-2,5-diazabicyclo[2.2.1]heptan-2-yl]-3-pyridyl]piperazin-1-yl]methyl]-6-methyl-morpholin-4-yl]quinoline-8-carbonitrile] — 2.1-fold lower, 23 nM
- [2H]c1ccc2c(N3C[C@H](CN4CCN(c5ccc(N6C[C@H]7C[C@@H]6CN7)nc5)CC4)O[C@H](C)C3)ccc(C#N)c2n1 [Example 153, 2-deuterio-5-[(2S,6R)-2-[[4-[6-[(1R,4R)-2,5-diazabicyclo[2.2.1]heptan-2-yl]-3-pyridyl]piperazin-1-yl]methyl]-6-methyl-morpholin-4-yl]quinoline-8-carbonitrile] — 2.6-fold lower, 19 nM
- [2H]c1ccc2c(N3C[C@H](CN4CCN(c5cccc(N6CC(C)(N)C6)n5)CC4)O[C@H](C)C3)ccc(C#N)c2n1 [Example 155, 5-[(2S,6R)-2-[[4-[6-(3-amino-3-methyl-azetidin-1-yl)-2-pyridyl]piperazin-1-yl]methyl]-6-methyl-morpholin-4-yl]-2-deuterio-quinoline-8-carbonitrile] — 6.1-fold lower, 8 nM
- [2H]c1ccc2c(N3C[C@H](CN4CC(O)(c5ccc(N6CC(C)(N)C6)cc5)C4)O[C@H](C)C3)ccc(C#N)c2n1 [Example 156, 5-[(2S,6R)-2-[[3-[4-(3-amino-3-methyl-azetidin-1-yl)phenyl]-3-hydroxy-azetidin-1-yl]methyl]-6-methyl-morpholin-4-yl]-2-deuterio-quinoline-8-carbonitrile] — 2-fold lower, 24 nM
- C[C@@H]1CN(c2ccc(C#N)n3nccc23)C[C@H](CN2CC(c3ccc(N4CC(C)(N)C4)nc3)C2)O1 [Example 157, 4-[(2S,6R)-2-[[3-[6-(3-amino-3-methyl-azetidin-1-yl)-3-pyridyl]azetidin-1-yl]methyl]-6-methyl-morpholin-4-yl]pyrazolo[1,5-a]pyridine-7-carbonitrile] — 2.4-fold higher, 118 nM
- [2H]c1ccc2c(N3C[C@H](CN4CC(c5cccc(N6CC(C)(N)C6)n5)C4)O[C@H](C)C3)ccc(C#N)c2n1 [Example 159, 5-[(2S,6R)-2-[[3-[6-(3-amino-3-methyl-azetidin-1-yl)-2-pyridyl]azetidin-1-yl]methyl]-6-methyl-morpholin-4-yl]-2-deuterio-quinoline-8-carbonitrile] — within 1.5-fold, 52 nM
- [2H]c1ccc2c(N3C[C@H](CN4CCN(c5ccc(N6CC7(CN(C)C7)C6)nc5)CC4)O[C@H](C)C3)ccc(C#N)c2n1 [Example 161, 2-deuterio-5-[(2R,6S)-2-methyl-6-[[4-[6-(6-methyl-2,6-diazaspiro[3.3]heptan-2-yl)-3-pyridyl]piperazin-1-yl]methyl]morpholin-4-yl]quinoline-8-carbonitrile] — 6.1-fold lower, 8 nM
